Read-outs that look alike come from different tables or passages of the source.
What was measured:
[1] = Plasma nutrikinetics of unconjugated phenolic/aromatic acids after curry test meals (LC-MS/MS, non-compartmental); details: for plasma concentration: all three doses; for AUC(0-t) / Cmax: male, human
Excerpt: The detailed methods for this Polyspice study have been described elsewhere. In brief, this was a three-way randomized, controlled, crossover, acute feeding trial in healthy Chinese males (age 23.7 ± 2.30 y, BMI 23.0 ± 2.31 kg/m^2). Three days prior to the main test day, each volunteer avoided vigorous physical activity and adopted a low polyphenol diet. To help adhere to a ‘low polyphenol diet’ in this run-in period, volunteers were provided with a list of polyphenol rich foods to avoid, which consisted of some fruits and fruit juices, spices and condiments, olive oil, certain vegetables, whole grain cereals, cocoa products, tea (including Green tea), coffee, red wine etc. […] On the main test day, the volunteers arrived at the study center in the morning after an overnight fasting period of a minimum of 10 h. On each of 3 test sessions, the volunteers consumed in random order 1 of 3 test meals: Dose 0 Control (D0C), Dose 1 Curry (D1C) and Dose 2 Curry (D2C). D0C, D1C, and D2C contained 0 g, 6 g, and 12 g mixed spices respectively. The mixed spices were prepared by thoroughly mixing dried powders of 7 different spices consisting of turmeric (Everest Spices, Mumbai, India), coriander seeds (Everest Spices, Mumbai, India), cumin seeds (Everest Spices, Mumbai, India), dried Indian gooseberry (‘amla’, Emblica officinalis, Ramdev Spices, Ahmedabad, India), cayenne pepper (Robertson’s, Durban, South Africa), cinnamon (McCormick’s, Baltimore, MD, USA), and clove (Robertson’s, South Africa) in the ratio of 8:4:4:4:2:1:1 respectively. The ‘base vegetables’ used in the curry recipes consisted of tomatoes, onions, ginger, and garlic in the ratio of 5:2:1:1, with D0C, D1C and D2C containing 0 g, 90 g, and 180 g base vegetables respectively. […] The 3 test meals were matched for total vegetable content by including 130 g peeled eggplant (Solanum melongena) and 50 g tomatoes to D0C and 90 g peeled eggplant to D1C. Plain white rice was consumed along with each test meal and the composition of all 3 test meals were isocaloric and macronutrients matched. A standardized lunch was served after the 3 h postprandial blood draw time point, consisting of a made-to-order chicken lasagna (TopChoice Food Industries (S) Pte Ltd., Singapore), which specifically excluded polyphenol-rich ingredients such as black pepper, herbs, spices, onion, garlic or ginger from the product’s original recipe. There was a minimum of 1-week washout period between each session.
The plasma sample was centrifuged at 1500 g for 10 min at 4 °C within 45 min of collection. Aliquots were stored at −80 °C until analysis.
The panel of phenolic/aromatic acids chosen for analyses were based on the predicted metabolic fate of polyphenols contained within the ingredients used in our test meals, as described above. […] Ultra-pure water from Adrona (Rīga, Latvija) was used. Unless otherwise stated, all chemicals and reagents were obtained from Sigma-Aldrich (St. Louis, MO, USA).
Stock solutions of 10 mM of each analyte were prepared in acetonitrile. Baseline (0 h) plasma was pooled from all participants and used as a matrix in equal volume for each calibration standard. […] All standard solutions were freshly prepared and kept in −20 °C prior to use.
Protein precipitation was undertaken using 400 μL acetonitrile containing 1 µM of BA-d5 internal standard was added to 100 μL of plasma, calibration, quality control or blank samples. The sample was centrifuged at 16,000 g for 15 min at 4 °C. 400 μL of the supernatant was recovered and evaporated under a nitrogen flow. Finally, extracts were reconstituted with 80 μL of 90% mobile phase A and 10% mobile phase B.

[2] = parameters: method as in PMID 23604435; details: cited from earlier work
[3] = Compartmental nutrikinetic modeling of the CNA plasma concentration-time profile (one-compartment, first-order elimination); type: in vivo; details: male, human, oral; for AUC: read-out: AUC (one-compartment model); for Cmax: read-out: Cmax (one-compartment model); for k el: read-out: Ke, elimination rate constant (converted)
Protocol: Compartmental parameter estimates for CNA were determined after fitting of concentration data to several compartmental models on Phoenix WinNonlin (Table S3). The Gauss-Newton algorithm was applied and the final model selection was based on goodness-of-fit comparisons, examination of the residual plots, correlation of the observed and predicted values, and Akaike information criterion. 1/Y^2 model yielded the best fit amongst the various weighting schemes used (1/Y, 1/Y^2, and actual). The final nutrikinetic curve best fit into a one-compartment, first-order elimination, as described by:(1) C(T)=DKa/V (Ka−Ke) [e^−KeT−e^−KaT] where C is the plasma concentration, T is time, Ka is the first-order absorption rate, Ke is the first-order elimination rate constant, D is dose, and V is the apparent volume of distribution. Secondary parameters determined from the model included the Cmax, Tmax, AUC0–7 h as well as the terminal half-life.

[4] = cited from earlier work
[5] = plasma, oral, 12 g mixed spices
[6] = 0 g mixed spices, D0C, Figure 2C
[7] = 6 g mixed spices, D1C, Figure 2C
[8] = 12 g mixed spices, D2C, Figure 2C

Row | Compound | AUC(0-t) ([1]; plasma, oral, 0 g mixed spices) | Cmax ([1]; plasma, oral, 0 g mixed spices) | AUC(0-t) ([1]; plasma, oral, 6 g mixed spices) | Cmax ([1]; plasma, oral, 6 g mixed spices) | AUC(0-t) [1, 5] | Cmax [1, 5] | other results
1 | O=C(O)CNC(=O)c1ccc(O)cc1 [4-Hydroxyhippuric acid (4OH-HA), 4-hydroxyhippuric acid] | – | – | – | – | – | – | plasma concentration [1]: below detection limits
2 | O=C(O)CNC(=O)c1ccccc1 [Hippuric acid (HA), hippuric acid] | 1.83 ± 1.42 µM·h | 1290 ± 706 nM | 3.22 ± 3.1 µM·h | 1370 ± 1170 nM | 3.06 ± 1.8 µM·h | 1080 ± 616 nM | maximum concentration in plasma ([1]; most abundant phenolic acid in plasma, Table 1): above 1200 nM; half-life [2]: 1320 min
3 | O=C(O)Cc1cccc(O)c1 [3-Hydroxyphenylacetic acid (3OH-PAA), 3-hydroxyphenylacetic acid] | 0.101 ± 0.112 µM·h | 28.1 ± 26.2 nM | 0.106 ± 0.07 µM·h | 27.2 ± 15.8 nM | 0.113 ± 0.0904 µM·h | 29.1 ± 20.5 nM | –
4 | O=C(O)Cc1ccccc1 [Phenylacetic acid (PAA), phenylacetic acid] | – | – | – | – | – | – | AUC(0-t) ([1]; in vivo, 0 g mixed spices): 1.74 ± 1.24 µM·h; Cmax ([1]; in vivo, 0 g mixed spices): 433 ± 287 nM; AUC(0-t) ([1]; in vivo, 6 g mixed spices): 4.44 ± 2.97 µM·h; Cmax ([1]; in vivo, 6 g mixed spices): 1020 ± 826 nM; AUC(0-t) ([1]; in vivo, 12 g mixed spices): 4.13 ± 2.95 µM·h; Cmax ([1]; in vivo, 12 g mixed spices): 1000 ± 666 nM
5 | O=C(O)c1cccc(O)c1 [3-Hydoxybenzoic acid (3OH-BA), 3-hydroxybenzoic acid] | – | – | – | – | – | – | plasma concentration [1]: below detection limits
6 | O=C(O)c1ccc(O)cc1 [4-Hydroxybenzoic acid (4OH-BA), 4-hydroxybenzoic acid] | 0.036 ± 0.0233 µM·h | 13.7 ± 9.9 nM | 0.0542 ± 0.0346 µM·h | 18.3 ± 12.4 nM | 0.114 ± 0.207 µM·h | 41.5 ± 101 nM | –
7 | O=C(O)CCc1ccccc1 [3-Phenylpropanoate acid (PPA), 3-phenylpropanoic acid] | 0.831 ± 0.784 µM·h | 279 ± 322 nM | 2.39 ± 4.37 µM·h | 731 ± 1220 nM | 1.86 ± 3.43 µM·h | 554 ± 985 nM | –
8 | O=C(O)CCc1cccc(O)c1 [3-(3-hydroxyphenyl)-propanoic acid] | 0.182 ± 0.126 µM·h | 58.9 ± 39.1 nM | 0.283 ± 0.388 µM·h | 83.3 ± 79.5 nM | 0.226 ± 0.177 µM·h | 72.5 ± 48.6 nM | –
9 | O=C(O)/C=C/c1ccccc1 [Cinnamic acid (CNA), cinnamic acid] | 0.0084 ± 0.0034 µM·h | 2.4 ± 0.7 nM | 0.376 ± 0.105 µM·h | 164 ± 47.7 nM | 0.876 ± 0.292 µM·h | 342 ± 83 nM | time of plasma peak post consumption ([1]; D1C and D2C): approximately 1 h; time of secondary peak in plasma ([1]; D1C and D2C periods, Figure 2A): around 3 h; AUC [3, 6]: 0.0254 µM·h; Cmax [3, 6]: 2.73 nM; k el [3, 6]: 8.06e-05 s⁻¹; half-life ([3]; 0 g mixed spices, D0C, Figure 2C, read-out: T0.5, half-life (converted)): 142 min; Tmax ([3]; 0 g mixed spices, D0C, Figure 2C, read-out: Tmax (one-compartment model)): 205 min; AUC [3, 7]: 0.347 µM·h; Cmax [3, 7]: 144 nM; k el [3, 7]: 0.000297 s⁻¹; half-life ([3]; 6 g mixed spices, D1C, Figure 2C, read-out: T0.5, half-life (converted)): 39 min; Tmax ([3]; 6 g mixed spices, D1C, Figure 2C, read-out: Tmax (one-compartment model)): 56.4 min; AUC [3, 8]: 0.847 µM·h; Cmax [3, 8]: 323 nM; k el [3, 8]: 0.000289 s⁻¹; half-life ([3]; 12 g mixed spices, D2C, Figure 2C, read-out: T0.5, half-life (converted)): 40.2 min; Tmax ([3]; 12 g mixed spices, D2C, Figure 2C, read-out: Tmax (one-compartment model)): 58.2 min; half-life ([3]; no lag time, 1st order absorption, 1st order elimination, 1-compartment model, assumes elimination is rate-limiting, read-out: average elimination half-life (converted)): 39.6 min; Tmax ([3]; no lag time, 1st order absorption, 1st order elimination, 1-compartment model, read-out: Tmax (average, compartmental model)): 57.6 min; fraction eliminated via oxidation (β-oxidation) and subsequent glycine conjugation to form HA [4]: 63%
10 | O=C(O)CNC(=O)c1cccc(O)c1 [3-Hydroxyhippuric acid (3OH-HA), 3-hydroxyhippuric acid] | 0.0707 ± 0.0616 µM·h | 26.3 ± 22.5 nM | 0.0801 ± 0.0683 µM·h | 27.4 ± 19.1 nM | 0.0884 ± 0.0854 µM·h | 31.3 ± 26.5 nM | –
11 | O=C(O)CCc1ccc(O)cc1 [3-(4-hydroxyphenyl)-propanoic acid] | 0.126 ± 0.115 µM·h | 31.4 ± 25 nM | 0.178 ± 0.12 µM·h | 48.6 ± 36.6 nM | 0.261 ± 0.132 µM·h | 81.7 ± 102 nM | –
12 | O=C(O)c1ccccc1 [Benzoic acid (BA), benzoic acid] | – | – | – | – | – | – | AUC(0-t) ([1]; in vivo, 0 g mixed spices): 0.348 ± 0.0868 µM·h; Cmax ([1]; in vivo, 0 g mixed spices): 114 ± 36.7 nM; AUC(0-t) ([1]; in vivo, 6 g mixed spices): 0.347 ± 0.107 µM·h; Cmax ([1]; in vivo, 6 g mixed spices): 113 ± 33.6 nM; AUC(0-t) ([1]; in vivo, 12 g mixed spices): 0.355 ± 0.123 µM·h; Cmax ([1]; in vivo, 12 g mixed spices): 109 ± 34.6 nM
13 | O=C(O)Cc1ccc(O)cc1 [4-Hydroxyphenylacetic acid (4OH-PAA), 4-hydroxyphenylacetic acid] | 2.07 ± 1.45 µM·h | 566 ± 322 nM | 2.38 ± 1.07 µM·h | 667 ± 305 nM | 2.17 ± 1.07 µM·h | 633 ± 285 nM | –
